Assay results: the NIST ThermoML archive (doi:10.1016/j.jct.2005.08.013)
Where “and” joins values, the source holds several entries; their conditions need not be identical. Identical values can stand only once.

Conditions: Calculated from knudsen effusion weight loss

c1ccc(-c2cc(-c3ccccc3)cc(-c3ccccc3)c2)cc1 [1,3,5-triphenylbenzene]
Crystal
Conditions | vapor or sublimation pressure
407.36 K | 0.00014 kPa and 0.000141 kPa and 0.000139 kPa
409.3 K | 0.000173 kPa and 0.000166 kPa and 0.000164 kPa
411.3 K | 0.000215 kPa and 0.00021 kPa and 0.000206 kPa
413.23 K | 0.000251 kPa and 0.000256 kPa
415.35 K | 0.000317 kPa and 0.000316 kPa
416.86 K | 0.000361 kPa and 0.000348 kPa
417.22 K | 0.00037 kPa and 0.000371 kPa
419.24 K | 0.000454 kPa and 0.00047 kPa
421.36 K | 0.000542 kPa and 0.000563 kPa and 0.000568 kPa
423.29 K | 0.000672 kPa and 0.000668 kPa and 0.000649 kPa
425.26 K | 0.000796 kPa and 0.000784 kPa
427.36 K | 0.000966 kPa and 0.000984 kPa and 0.001 kPa
429.29 K | 0.00117 kPa and 0.0012 kPa

O=C1c2ccccc2-c2cccc3cccc1c23 [7H-benz[de]anthracen-7-one]
Crystal
Conditions | vapor or sublimation pressure
390.31 K | 0.000152 kPa and 0.000149 kPa
392.23 K | 0.000179 kPa and 0.000177 kPa
394.57 K | 0.000234 kPa and 0.000221 kPa
396.35 K | 0.000263 kPa and 0.000262 kPa and 0.00026 kPa
398.22 K | 0.000323 kPa and 0.000325 kPa
400.41 K | 0.000394 kPa and 0.000381 kPa
402.19 K | 0.000471 kPa and 0.000453 kPa
404.34 K | 0.00057 kPa and 0.000564 kPa and 0.000565 kPa
406.35 K | 0.000686 kPa and 0.000679 kPa and 0.00068 kPa
408.35 K | 0.00081 kPa and 0.000796 kPa and 0.0008 kPa
410.23 K | 0.000962 kPa and 0.000954 kPa and 0.000926 kPa

c1ccc2cc3ccccc3cc2c1 [anthracene]
Crystal
Conditions | vapor or sublimation pressure
340.41 K | 0.000143 kPa and 0.000144 kPa and 0.000141 kPa
342.25 K | 0.000172 kPa and 0.000173 kPa and 0.000167 kPa
344.06 K | 0.000211 kPa and 0.000206 kPa
346.4 K | 0.000258 kPa and 0.000262 kPa and 0.000263 kPa
348.15 K | 0.000306 kPa and 0.000304 kPa and 0.000308 kPa
350.15 K | 0.000375 kPa and 0.000371 kPa and 0.000376 kPa
352.39 K | 0.000464 kPa and 0.000459 kPa and 0.000458 kPa
354.06 K | 0.00055 kPa and 0.000548 kPa and 0.000554 kPa
356.2 K | 0.000673 kPa and 0.000679 kPa and 0.000658 kPa
358.22 K | 0.000815 kPa and 0.000821 kPa and 0.00081 kPa
360.38 K | 0.00101 kPa and 0.00098 kPa

O=C(O)c1ccccc1 [benzoic acid]
Crystal
Conditions | vapor or sublimation pressure
299.33 K | 0.000134 kPa and 0.000131 kPa
301.04 K | 0.000162 kPa and 0.00016 kPa and 0.000155 kPa
303.16 K | 0.000203 kPa and 0.000201 kPa and 0.00021 kPa
305.24 K | 0.000271 kPa and 0.000265 kPa and 0.000261 kPa
307.13 K | 0.000332 kPa and 0.000326 kPa and 0.000323 kPa
309.25 K | 0.000414 kPa and 0.000408 kPa and 0.00042 kPa
311.3 K | 0.000525 kPa and 0.000512 kPa and 0.000524 kPa
313.2 K | 0.000643 kPa and 0.000622 kPa and 0.000647 kPa
315.27 K | 0.000815 kPa and 0.000799 kPa and 0.00083 kPa
317.32 K | 0.00105 kPa and 0.00102 kPa and 0.00101 kPa

c1ccc2c(c1)ccc1ccccc12 [phenanthrene]
Crystal 2
Conditions | vapor or sublimation pressure
313.46 K | 0.000123 kPa and 0.000124 kPa
315.48 K | 0.000151 kPa and 0.000155 kPa and 0.000156 kPa
317.41 K | 0.000185 kPa and 0.000191 kPa and 0.000193 kPa
319.47 K | 0.000238 kPa and 0.000239 kPa and 0.000235 kPa
321.48 K | 0.000292 kPa and 0.000293 kPa and 0.000296 kPa
323.16 K | 0.000343 kPa and 0.000352 kPa
325.46 K | 0.000436 kPa and 0.000446 kPa and 0.000453 kPa
327.47 K | 0.000543 kPa and 0.000544 kPa and 0.00055 kPa
329.47 K | 0.00067 kPa and 0.000675 kPa and 0.000678 kPa
331.42 K | 0.000814 kPa and 0.000825 kPa and 0.000834 kPa
333.16 K | 0.001 kPa and 0.00101 kPa
